Data as given in the NIST ThermoML archive (doi:10.1021/je060271a).

Conditions: 283.15 K, Liquid, Vibrating tube method

CCCCC(=O)OCC(COC(=O)CCCC)(COC(=O)CCCC)COC(=O)CCCC [pentaerythritol tetrapentanoate]
Conditions	mass density [kg/m3]
17085 kPa	1036.8
17119 kPa	1037
17147 kPa	1036.9
17175 kPa	1036.9
17208 kPa	1036.9
17236 kPa	1036.9
17270 kPa	1036.9
17299 kPa	1037
17327 kPa	1037
17355 kPa	1037.1
17390 kPa	1037
17419 kPa	1037.1
17449 kPa	1037.2
17478 kPa	1037
17514 kPa	1037
17542 kPa	1037.2
17572 kPa	1037.1
17607 kPa	1037.1
17637 kPa	1037.4
17666 kPa	1037.2
17702 kPa	1037.3
17732 kPa	1037.2
17762 kPa	1037.3
17798 kPa	1037.3
17829 kPa	1037.1
17860 kPa	1037.4
17890 kPa	1037.4
17927 kPa	1037.2
17958 kPa	1037.4
17995 kPa	1037.4
18026 kPa	1037.4
18058 kPa	1037.4
18097 kPa	1037.4
18130 kPa	1037.4
18164 kPa	1037.4
18197 kPa	1037.5
18237 kPa	1037.5
18262 kPa	1037.5
18283 kPa	1037.6
18309 kPa	1037.6
18330 kPa	1037.6
18356 kPa	1037.5
18377 kPa	1037.6
18399 kPa	1037.6
18421 kPa	1037.6
18446 kPa	1037.8
18468 kPa	1037.6
18490 kPa	1037.7
18517 kPa	1037.7
18539 kPa	1037.6
18561 kPa	1037.7
18588 kPa	1037.6
18610 kPa	1037.8
18631 kPa	1037.7
18657 kPa	1037.6
18680 kPa	1037.8
18702 kPa	1037.9
18728 kPa	1037.6
18750 kPa	1037.7
18778 kPa	1037.8
18800 kPa	1037.8
18823 kPa	1037.9
18845 kPa	1037.8
18874 kPa	1037.8
18896 kPa	1037.8
18919 kPa	1037.9
18947 kPa	1037.9
18970 kPa	1037.8
18993 kPa	1037.9
19021 kPa	1038
19044 kPa	1037.9
19067 kPa	1037.8
19094 kPa	1037.9
19118 kPa	1038
19142 kPa	1038.1
19166 kPa	1038
19191 kPa	1038
19219 kPa	1038
19243 kPa	1038
19266 kPa	1038
19295 kPa	1038.2
19319 kPa	1038
19343 kPa	1038
19372 kPa	1038.2
19397 kPa	1038.1
19420 kPa	1038.2
19450 kPa	1038.1
19475 kPa	1038.1
19501 kPa	1038.1
19525 kPa	1038.2
19550 kPa	1038.2
19579 kPa	1038.2
19603 kPa	1038.3
19633 kPa	1038.3
19658 kPa	1038.2
19682 kPa	1038.1
19707 kPa	1038.3
19738 kPa	1038.4
19763 kPa	1038.4
19788 kPa	1038.3
19818 kPa	1038.4
19844 kPa	1038.3
19874 kPa	1038.4
19900 kPa	1038.3
19925 kPa	1038.5
19951 kPa	1038.5
19982 kPa	1038.5
20007 kPa	1038.5
20033 kPa	1038.5
20064 kPa	1038.4
20090 kPa	1038.5
20121 kPa	1038.5
20147 kPa	1038.5
20174 kPa	1038.5
20200 kPa	1038.6
20232 kPa	1038.5
20259 kPa	1038.7
20286 kPa	1038.5
20318 kPa	1038.6
20344 kPa	1038.6
20376 kPa	1038.6
20403 kPa	1038.6
20430 kPa	1038.8
20462 kPa	1038.6
20490 kPa	1038.7
20517 kPa	1038.7
20550 kPa	1038.8
20578 kPa	1038.8
20607 kPa	1038.8
20634 kPa	1038.9
20667 kPa	1038.8
20695 kPa	1038.8
20723 kPa	1038.8
20756 kPa	1038.9
20784 kPa	1038.9
20812 kPa	1038.9
20846 kPa	1038.9
20875 kPa	1039
20904 kPa	1038.9
20938 kPa	1038.9
20966 kPa	1038.9
20995 kPa	1039
21029 kPa	1039
21058 kPa	1039.1
21086 kPa	1039.2
21116 kPa	1039
21151 kPa	1039
21180 kPa	1039.1
21215 kPa	1039.1
21244 kPa	1039.2
21274 kPa	1039.1
21303 kPa	1039.1
21340 kPa	1039.1
21369 kPa	1039.2
21399 kPa	1039.1
21435 kPa	1039.2
21464 kPa	1039.2
21495 kPa	1039.3
21531 kPa	1039.4
21561 kPa	1039.3
21592 kPa	1039.3
21628 kPa	1039.2
21658 kPa	1039.2
21689 kPa	1039.3
21727 kPa	1039.4
21760 kPa	1039.4
21791 kPa	1039.4
21822 kPa	1039.5
21860 kPa	1039.5
21891 kPa	1039.5
21922 kPa	1039.5
21954 kPa	1039.5
21992 kPa	1039.5
22024 kPa	1039.5
22061 kPa	1039.6
22093 kPa	1039.7
22125 kPa	1039.5
22164 kPa	1039.5
22192 kPa	1039.6
22231 kPa	1039.6
22263 kPa	1039.6
22302 kPa	1039.7
22335 kPa	1039.7
22367 kPa	1039.8
22406 kPa	1039.7
22439 kPa	1039.8
22472 kPa	1039.7
22512 kPa	1039.8
22545 kPa	1039.8
22579 kPa	1039.8
22619 kPa	1040
22654 kPa	1039.9
22687 kPa	1039.9
22721 kPa	1039.9
22762 kPa	1039.8
22796 kPa	1040
22830 kPa	1039.9
22871 kPa	1040
22905 kPa	1040
22947 kPa	1039.9
22982 kPa	1040.1
23016 kPa	1039.9
23059 kPa	1040
23094 kPa	1040.1
23129 kPa	1040.1
23164 kPa	1040.2
23208 kPa	1040.1
23243 kPa	1040.3
23285 kPa	1040.3
23321 kPa	1040.3
23357 kPa	1040.2
23394 kPa	1040.2
23437 kPa	1040.3
23473 kPa	1040.2
23516 kPa	1040.4
23553 kPa	1040.3
23590 kPa	1040.4
23635 kPa	1040.3
23672 kPa	1040.4
23709 kPa	1040.5
23746 kPa	1040.5
23790 kPa	1040.5
23827 kPa	1040.5
23872 kPa	1040.5
23909 kPa	1040.5
23947 kPa	1040.5
24000 kPa	1040.6
24048 kPa	1040.5
24099 kPa	1040.6
24162 kPa	1040.7
24208 kPa	1040.8
24238 kPa	1040.7
24266 kPa	1040.7
24299 kPa	1040.8
24327 kPa	1040.8
24360 kPa	1040.9
24388 kPa	1040.7
24416 kPa	1040.9
24444 kPa	1040.9
24478 kPa	1040.9
24506 kPa	1040.9
24535 kPa	1041
24569 kPa	1040.9
24598 kPa	1041
24626 kPa	1040.9
24660 kPa	1040.9
24689 kPa	1040.9
24718 kPa	1041
24746 kPa	1041
24781 kPa	1041.2
24810 kPa	1041
24845 kPa	1041.1
24874 kPa	1041.2
24903 kPa	1041.1
24934 kPa	1041.1
24964 kPa	1041.1
24999 kPa	1041
25028 kPa	1041.2
25058 kPa	1041.2
25088 kPa	1041.2
25124 kPa	1041.1
25154 kPa	1041.2
25183 kPa	1041.2
25219 kPa	1041.3
25249 kPa	1041.3
25279 kPa	1041.3
25347 kPa	1041.3
25380 kPa	1041.4
25410 kPa	1041.3
25441 kPa	1041.5
25477 kPa	1041.3
25508 kPa	1041.3
25544 kPa	1041.4
25575 kPa	1041.5
25606 kPa	1041.5
25642 kPa	1041.6
25673 kPa	1041.4
25705 kPa	1041.4
25742 kPa	1041.3
25775 kPa	1041.5
25806 kPa	1041.6
25837 kPa	1041.5
25875 kPa	1041.6
25907 kPa	1041.6
25939 kPa	1041.7
25977 kPa	1041.6
26009 kPa	1041.6
26041 kPa	1041.6
26079 kPa	1041.7
26111 kPa	1041.7
26143 kPa	1041.7
26176 kPa	1041.8
26216 kPa	1041.7
26249 kPa	1041.8
26282 kPa	1041.8
26315 kPa	1041.8
26354 kPa	1041.8
26388 kPa	1041.9
26421 kPa	1041.8
26461 kPa	1041.9
26494 kPa	1042
26528 kPa	1041.8
26567 kPa	1042
26601 kPa	1041.9
26635 kPa	1041.9
26669 kPa	1042
26710 kPa	1042
26744 kPa	1042.1
26778 kPa	1042.1
26818 kPa	1042
26853 kPa	1042.1
26893 kPa	1042.1
26928 kPa	1042.1
26963 kPa	1042.2
26997 kPa	1042.1
27039 kPa	1042.2
27074 kPa	1042.2
27110 kPa	1042.3
27152 kPa	1042.2
27187 kPa	1042.3
